Reference: patent US7396837B2, “Antitumoral analogs of lamellarins” (Pharma Mar, S.A.U., priority 2002, dated 2008)
Like-named read-outs stand apart in the source and are kept apart here.

How the values were obtained:
K-562 = test: SRB colorimetric cell growth inhibition assay, K-562; format: cell-based; conditions: Homo sapiens, K562, K-562; for GI50: GI=growth inhibition, read-out: GI50 K-562; for CC50: read-out: LC50 K-562; for IC (TGI): read-out: TGI K-562
How it was run: (§1)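 After uninterrupted treatment, cultures are fixed and stained with sulforhodamine B, and absorbance reflects cell growth and viability. Each value represents the average of triplicate wells with SD.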

A-549 = test: SRB colorimetric cell growth inhibition assay, A-549; format: cell-based; conditions: Homo sapiens, A549, A-549; for GI50: GI=growth inhibition, read-out: GI50 A-549; for CC50: read-out: LC50 A-549; for IC (TGI): read-out: TGI A-549
How it was run: as §1

SK-MEL-28 = test: SRB colorimetric cell growth inhibition assay, SK-MEL-28; format: cell-based; conditions: Homo sapiens, SK-MEL-28, MEL-28; for GI50: GI=growth inhibition, read-out: GI50 MEL-28; for CC50: LC=cell killing (cytotoxic effect), read-out: LC50 MEL-28; for IC (TGI): TGI=total growth inhibition (cytostatic effect), read-out: TGI MEL-28
How it was run: as §1

HT-29 = test: SRB colorimetric cell growth inhibition assay, HT-29; format: cell-based; conditions: Homo sapiens, HT-29, HT-29; for GI50: GI=growth inhibition, read-out: GI50 HT-29; for CC50: read-out: LC50 HT-29; for IC (TGI): read-out: TGI HT-29
How it was run: as §1

LoVo = test: SRB colorimetric cell growth inhibition assay, LoVo; format: cell-based; conditions: Homo sapiens, LoVo; for GI50: GI=growth inhibition, read-out: GI50 LOVO; for CC50: read-out: LC50 LOVO; for IC (TGI): read-out: TGI LOVO
How it was run: as §1

LoVo-Dox = test: SRB colorimetric cell growth inhibition assay, LoVo-Dox (MDR); format: cell-based; conditions: Homo sapiens, LOVO-DOX; for GI50: GI=growth inhibition, read-out: GI50 LOVO-DOX; for CC50: read-out: LC50 LOVO-DOX; for IC (TGI): read-out: TGI LOVO-DOX
How it was run: as §1

DU-145 = test: SRB colorimetric cell growth inhibition assay, DU-145; format: cell-based; conditions: Homo sapiens, DU-145, DU-145; for GI50: GI=growth inhibition, read-out: GI50 DU-145; for CC50: LC=cell killing (cytotoxic effect), read-out: LC50 DU-145; for IC (TGI): TGI=total growth inhibition (cytostatic effect), read-out: TGI DU-145
How it was run: as §1

LNCaP = test: SRB colorimetric cell growth inhibition assay, LNCaP; format: cell-based; conditions: Homo sapiens, LNCaP, LN-caP; for GI50: GI=growth inhibition, read-out: GI50 LN-caP; for CC50: LC=cell killing (cytotoxic effect), read-out: LC50 LN-caP; for IC (TGI): TGI=total growth inhibition (cytostatic effect), read-out: TGI LN-caP
How it was run: as §1

SK-BR-3 = test: SRB colorimetric cell growth inhibition assay, SK-BR-3; format: cell-based; conditions: Homo sapiens, SK-BR-3, SK-BR-3; for GI50: GI=growth inhibition, read-out: GI50 SK-BR-3; for CC50: LC=cell killing (cytotoxic effect), read-out: LC50 SK-BR-3; for IC (TGI): TGI=total growth inhibition (cytostatic effect), read-out: TGI SK-BR-3
How it was run: as §1

IGROV = test: SRB colorimetric cell growth inhibition assay, IGROV; format: cell-based; conditions: Homo sapiens, IGROV; for GI50: GI=growth inhibition, read-out: GI50 IGROV; for CC50: LC=cell killing (cytotoxic effect), read-out: LC50 IGROV; for IC (TGI): TGI=total growth inhibition (cytostatic effect), read-out: TGI IGROV
How it was run: as §1

IGROV-ET = test: SRB colorimetric cell growth inhibition assay, IGROV-ET (ET-743 resistant); format: cell-based; conditions: Homo sapiens, IGROV-ET; for GI50: GI=growth inhibition, read-out: GI50 IGROV-ET; for CC50: LC=cell killing (cytotoxic effect), read-out: LC50 IGROV-ET; for IC (TGI): TGI=total growth inhibition (cytostatic effect), read-out: TGI IGROV-ET
How it was run: as §1

PANC-1 = test: SRB colorimetric cell growth inhibition assay, PANC-1; format: cell-based; conditions: Homo sapiens, PANC-1, PANC-1; for GI50: GI=growth inhibition, read-out: GI50 PANC-1; for CC50: read-out: LC50 PANC-1; for IC (TGI): read-out: TGI PANC-1
How it was run: as §1

human topoisomerase I = molecular target: T1, human topoisomerase I (Homo sapiens, UniProt P11387); test: Topoisomerase I DNA relaxation assay (supercoiled plasmid DNA); format: biochemical; conditions: supercoiled plasmid DNA, each compound tested at 1 μM, agarose gel with ethidium bromide
T1 sequence (P11387 1-765): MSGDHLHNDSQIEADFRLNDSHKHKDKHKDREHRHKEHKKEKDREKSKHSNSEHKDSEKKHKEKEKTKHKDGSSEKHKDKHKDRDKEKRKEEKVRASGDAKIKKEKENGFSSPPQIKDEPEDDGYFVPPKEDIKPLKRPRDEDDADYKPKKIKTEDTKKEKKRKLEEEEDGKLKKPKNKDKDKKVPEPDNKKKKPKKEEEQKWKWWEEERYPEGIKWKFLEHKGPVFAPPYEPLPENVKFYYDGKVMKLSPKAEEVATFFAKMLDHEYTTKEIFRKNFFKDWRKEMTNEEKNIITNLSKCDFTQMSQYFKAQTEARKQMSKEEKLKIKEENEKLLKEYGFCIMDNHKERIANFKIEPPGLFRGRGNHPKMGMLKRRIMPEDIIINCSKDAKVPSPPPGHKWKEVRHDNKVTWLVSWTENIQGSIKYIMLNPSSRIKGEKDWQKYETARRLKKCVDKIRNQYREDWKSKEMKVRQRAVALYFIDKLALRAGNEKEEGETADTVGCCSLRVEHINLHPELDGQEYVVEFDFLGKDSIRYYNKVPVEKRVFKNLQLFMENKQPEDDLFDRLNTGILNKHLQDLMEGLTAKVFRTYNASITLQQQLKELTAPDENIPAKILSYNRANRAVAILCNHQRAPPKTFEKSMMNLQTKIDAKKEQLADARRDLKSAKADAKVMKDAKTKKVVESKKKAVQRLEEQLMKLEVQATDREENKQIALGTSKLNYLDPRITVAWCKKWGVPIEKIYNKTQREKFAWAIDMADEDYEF
How it was run: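 Supercoiled plasmid DNA was relaxed by human topoisomerase I with or without test compound at 1 μM. Products were resolved by agarose gel electrophoresis with ethidium bromide staining.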

[1] = LC=cell killing (cytotoxic effect)
[2] = TGI=total growth inhibition (cytostatic effect)
[3] = cell killing (cytotoxic effect)
[4] = total growth inhibition (cytostatic effect)

Compound | GI50 (K-562) | GI50 (A-549) | GI50 (SK-MEL-28) | CC50 (SK-MEL-28) | IC (TGI) (SK-MEL-28) | GI50 (HT-29) | GI50 (LoVo) | GI50 (LoVo-Dox) | GI50 (DU-145) | CC50 (DU-145) | IC (TGI) (DU-145) | GI50 (LNCaP) | CC50 (LNCaP) | IC (TGI) (LNCaP) | GI50 (SK-BR-3) | CC50 (SK-BR-3) | IC (TGI) (SK-BR-3) | GI50 (IGROV) | CC50 (IGROV) | IC (TGI) (IGROV) | further results
COc1cc(-c2c3c4cc(OC)c(OC(=O)[C@H](C)N)cc4oc(=O)c3n3ccc4cc(OC(=O)[C@H](C)N)c(OC)cc4c23)ccc1OC(=O)[C@H](C)N [Compound 40] | 0.0582 µM | 0.0316 µM | 0.0412 µM | 9.48 µM | 0.595 µM | 3.57 µM | 0.223 µM | 0.47 µM | 0.0162 µM | 9.48 µM | 0.094 µM | 0.13 µM | 4.38 µM | 0.447 µM | 0.816 µM | 9.48 µM | 3.25 µM | 0.0449 µM | 5.04 µM | 0.391 µM | CC50 (K-562; [1]): 4.61 µM; IC (TGI) (K-562; [2]): 0.986 µM; CC50 (A-549; [1]): 9.48 µM; IC (TGI) (A-549; [2]): 0.27 µM; CC50 (HT-29; [1]): 9.48 µM; IC (TGI) (HT-29; [2]): 9.48 µM; CC50 (LoVo; [1]): 6.41 µM; IC (TGI) (LoVo; [2]): 0.884 µM; CC50 (LoVo-Dox; [1]): 9.48 µM; IC (TGI) (LoVo-Dox; [2]): 3.35 µM; GI50 (IGROV-ET): 0.0852 µM; CC50 (IGROV-ET): 9.48 µM; IC (TGI) (IGROV-ET): 0.557 µM; GI50 (PANC-1): 0.254 µM; CC50 (PANC-1; [1]): 9.48 µM; IC (TGI) (PANC-1; [2]): 3.27 µM; stimulation of DNA cleavage by topoisomerase I / inhibition of topoisomerase I (nicked DNA band) in DNA relaxation assay (human topoisomerase I): marked inhibition of topoisomerase I
COc1cc(-c2c3n(c4c(=O)oc5cc(O)c(OC)cc5c24)CCc2cc(O)c(OC)cc2-3)ccc1O [Compound 109] | 0.425 µM | 5.94 µM | 0.885 µM | 10.8 µM | 2.57 µM | 4.81 µM | 0.917 µM | 5.64 µM | 2.99 µM | 19.9 µM | 15.4 µM | 1.16 µM | 19.9 µM | 1.99 µM | 3.45 µM | 19 µM | 8.1 µM | 1.8 µM | 19.9 µM | 6.08 µM | CC50 (K-562; [3]): 19.9 µM; IC (TGI) (K-562; [4]): 19.9 µM; CC50 (A-549; [3]): 19.9 µM; IC (TGI) (A-549; [4]): 14.1 µM; CC50 (HT-29; [3]): 19.9 µM; IC (TGI) (HT-29; [4]): 19.9 µM; CC50 (LoVo; [3]): 19.9 µM; IC (TGI) (LoVo; [4]): 4.07 µM; CC50 (LoVo-Dox; [3]): 19.9 µM; IC (TGI) (LoVo-Dox; [4]): 13.5 µM; GI50 (IGROV-ET): 9.67 µM; CC50 (IGROV-ET): 19.9 µM; IC (TGI) (IGROV-ET): 19.9 µM; GI50 (PANC-1): 5.7 µM; CC50 (PANC-1; [3]): 19.9 µM; IC (TGI) (PANC-1; [4]): 19.9 µM; stimulation of DNA cleavage by topoisomerase I / inhibition of topoisomerase I (nicked DNA band) in DNA relaxation assay (human topoisomerase I): inactive
